The source of these data is the RepoRT retention time repository (doi:10.1016/j.foodchem.2021.129757).

Common to all, as to details: stereoisomer not certain
Series [1] is described as follows: RP, Merck LiChrospher RP-18, 250 × 4 mm, 5 µm, 35 °C, 0.3 mL/min, estimated dead time 6.7 min; A: water + 0.5% formic acid; B: acetonitrile + 0.5% formic acid; gradient (min/%B) 0/5 10/5 30/15 45/20 65/20 95/54 110/63 115/5 135/5.
Series [2] can be described thus: RP, Waters ACQUITY UPLC BEH Shield RP18, 150 × 2.1 mm, 1.7 µm, 40 °C, 0.4 mL/min, estimated dead time 0.83 min; A: water + 0.1% formic acid, pH 3; B: acetonitrile + 0.1% formic acid, pH 3; gradient (min/%B) 0/0 30/50 31/100 37/100 37.1/0.
The nature of series [3]: RP, Phenomenex Synergi Hydro-RP, 250 × 2 mm, 4 µm, 25 °C, 0.2 mL/min, estimated dead time 2.5 min; A: water + 0.1% formic acid, pH 3; B: acetonitrile + 0.1% formic acid, pH 3; gradient (min/%B) 0/0.5 7/0.5 12/12.5 25/16.3 47/35 48/65 50/65 50.1/0.5.
A short description of series [4]: RP, Waters Atlantis T3, 100 × 2.1 mm, 3 µm, 40 °C, 0.3 mL/min, estimated dead time 0.73 min; A: water + 0.1% trifluoroacetic acid, pH 2; B: acetonitrile + 0.1% trifluoroacetic acid, pH 2; gradient (min/%B) 0/10 1/10 6/40 7/50 8/50 14/70 16/80 20/10 25/10.
Series [5] is described as follows: RP, 150 × 2.1 mm, 2.6 µm, 40 °C, 0.35 mL/min, estimated dead time 0.94 min; A: water + 0.1% formic acid, pH 3; B: acetonitrile + 0.1% formic acid, pH 3; gradient (min/%B) 0/0 1/0 12.5/100 14/100 14.2/0 15/0.
Series [6] can be described thus: RP, 150 × 2.1 mm, 2.6 µm, 40 °C, 0.35 mL/min, estimated dead time 0.94 min; A: water + 0.1% formic acid, pH 3; B: acetonitrile + 0.1% formic acid, pH 3; gradient (min/%B) 0/0 1/5 7/45 8.5/80 10.5/80 11/5 12/5.
Series [7] is described as follows: RP, Waters ACQUITY UPLC HSS T3, 100 × 2.1 mm, 1.8 µm, 30 °C, 0.4 mL/min, estimated dead time 0.55 min; A: water + 0.1% formic acid, pH 3; B: acetonitrile + 0.1% formic acid, pH 3; gradient (min/%B) 0/0 2/0 15/100 22/100 22.1/0 26/0.
The nature of series [8]: RP, Agilent InfinityLab Poroshell 120 EC-C18, 100 × 3 mm, 2.7 µm, 25 °C, 0.4 mL/min, estimated dead time 1.1 min; A: water + 0.1% formic acid, pH 3; B: acetonitrile + 0.1% formic acid, pH 3; gradient (min/%B) 0/5 10/25 20/40 24/90 25/90 26/5 30/5.
Series [9] is described as follows: RP, Phenomenex Kinetex EVO C18, 100 × 2.1 mm, 2.6 µm, 40 °C, 0.4 mL/min, estimated dead time 0.55 min; A: water + 0.2% formic acid; B: acetonitrile + 0.2% formic acid; gradient (min/%B) 0/5 0.5/5 7/95 8/95 8.5/5 12/5.
Series [10] can be described thus: RP, Waters ACQUITY UPLC BEH C18, 100 × 2.1 mm, 1.7 µm, 65 °C, 0.4 mL/min, estimated dead time 0.55 min; A: water + 0.1% formic acid, pH 3; B: 80% acetonitrile + 20% acetone + 0.1% formic acid, pH 3; gradient (min/%B) 0/0 5/100 5.5/0 6/0.
The nature of series [11]: RP, Waters ACQUITY UPLC HSS T3, 100 × 2.1 mm, 50 °C; A: water + 0.1% formic acid, pH 3; B: 30% methanol + 70% acetonitrile + 0.1% formic acid, pH 3; gradient (min/%B) 0/5 1/8 2/15 3/40 4/70 4.5/100 5/100 6.4/100 6.6/5 6.8/5 7/5.
Series [12] in a line: RP, Agilent ZORBAX RRHD Eclipse Plus C18, 50 × 2.1 mm, 1.8 µm, 30 °C, 0.4 mL/min, estimated dead time 0.28 min; A: water + 0.1% formic acid, pH 3; B: acetonitrile + 0.1% formic acid, pH 3; gradient (min/%B) 0/1 5/10 8/25 9.1/99 10/99 12/1.
Series [13] can be described thus: RP, Agilent ZORBAX RRHD Eclipse Plus C18, 50 × 2.1 mm, 1.8 µm, 30 °C, 0.4 mL/min, estimated dead time 0.28 min; A: water + 0.1% formic acid, pH 3; B: acetonitrile + 0.1% formic acid, pH 3; gradient (min/%B) 0/1 5/10 8/25 9.1/99 10/99 12/99.

Structures are written as SMILES.

Consider `O=Cc1ccc(CO)o1` [5-Hydroxymethylfurfural], for which the LC retention time in series [1] is 24.2 min.

For the compound `CC1OC(OCC2OC(Oc3cc4c(O)cc(O)cc4[o+]c3-c3ccc(O)c(O)c3)C(O)C(O)C2O)C(O)C(O)C1O` (stereo not drawn) [Cyanidin-3-O-rutinoside], the figures for the LC retention time in [1] and in series [2] were 49.6 min and 6.43 min, respectively.

Take `CCOC(=O)C=Cc1ccc(O)c(O)c1` [Ethyl Caffeate]: the LC retention time in [1] is 92.7 min.

`CCOC(=O)c1cc(O)c(O)c(O)c1` [Ethyl Gallate]: the LC retention time in series [1] is 53.9 min.

As for `COc1cc(-c2oc3cc(O)cc(O)c3c(=O)c2OC2OC(CO)C(O)C(O)C2O)ccc1O` (stereo not drawn) [Isorhamnetin-3-O-glucoside], the LC retention time is 78.5 min in [1], 38.7 min in [3] and 7.94 min in [4].

Turning to `COc1cc(-c2oc3cc(O)cc(O)c3c(=O)c2OC2OC(COC3OC(C)C(O)C(O)C3O)C(O)C(O)C2O)ccc1O` (stereo not drawn) [Isorhamnetin-3-O-rutinoside], the LC retention time in [5] is 5.8 min; in [6], 5.95 min; in series [1] it was 71.3 min.

Take `CCC=CCC1C(=O)CCC1CC(=O)O` (stereo not drawn) [Jasmonic Acid]: the LC retention time in series [1] was 96.2 min.

Regarding `O=c1cc(-c2ccc(O)c(O)c2)oc2cc(OC3OC(CO)C(O)C(O)C3O)cc(O)c12` (stereo not drawn) [Luteolin 7-glucoside], the LC retention time was 5.68 min in series [5]; 5.79 min in series [6]; 62.2 min in [1]; 12.4 min in [2]; 7.79 min in series [4].

Regarding `O=C1CC(c2ccc(O)cc2)Oc2cc(O)cc(O)c21` (stereo not drawn) [Naringenin], the LC retention time in series [5] was 7.61 min; in series [6] it was 7.97 min; in series [1] it was 95.6 min; in [7] it was 11.6 min; in [2] it was 21.1 min; in [8], 16.3 min. For the same compound, in series [4], the LC retention time is 10.1 min.

In the case of `CC=C1C(OC2OC(CO)C(O)C(O)C2O)OC=C(C(=O)OC)C1CC(=O)OCCc1ccc(O)c(O)c1` (stereo not drawn) [Oleuropein], the LC retention time in series [9] is 5.24 min; in series [1] it was 83.2 min; in series [4], 8.38 min.

Take `O=c1c(O)c(-c2ccc(OC3OC(CO)C(O)C(O)C3O)c(O)c2)oc2cc(O)cc(O)c12` (stereo not drawn) [Quercetin 4-O-glucoside]: the LC retention time in series [5] was 6.09 min; in [1], 78 min; in series [4], 7.94 min.

Consider `COc1cc(C=O)cc(OC)c1O` [Syringaldehyde], for which the LC retention time is 5.74 min in series [5], 5.66 min in [6], 58.1 min in [1] and 2.11 min in series [10].

For the compound `OCCc1ccc(O)cc1` [Tyrosol], the LC retention time in [1] was 38.7 min.

Turning to `O=C(O)/C=C/c1cccc(O)c1` [m-Coumaric acid], the LC retention time was 3.53 min in [11]; 63.4 min in [1]; 2.14 min in [10]; 7.72 min in series [12]; 7.99 min in [13]; 33.9 min in [3]. The LC retention time in series [4] is 7.5 min.

As for `O=C(O)CC(O)C(=O)O` (stereo not drawn) [malic acid], the LC retention time is 8.06 min in series [1] and 3.87 min in [3].

As for `COc1cc(C=CC(=O)O)cc(OC)c1OC` [o-Methylsinapic acid], the LC retention time was 7.02 min in series [5], 7.28 min in series [6], 90.1 min in [1] and 15.8 min in [2].
